B1: AaIT: scorpion toxin AaIT (peptide, UniProt P01497 19-88, looked up)
Beta-insect excitatory toxin 1: KKNGYAVDSSGKAPECLLSNYCNNECTKVHYADKGYCCLLSCYCFGLNDDKKVLEISDTRKSYCDTTIIN

What was measured:
[1] = Susceptibility to scrambling of Hv1a and diselenide analogs (buffer with or without GSH); format: physicochemical; details: for susceptibility to scrambling in the presence of GSH: 1 equivalent GSH; for Correctly Folded Toxin, In Buffer, pH 7.2: 45 μL of 250 μM peptide + 45 μL 0.1 M phosphate buffer pH 7.2, 24 h; for Correctly Folded Toxin, In Buffer, pH 7.2 / Correctly Folded Toxin, With 1 Equivalent GSH, pH 7.2: quenched with 1% TFA, analytical RP-HPLC; for Correctly Folded Toxin, With 1 Equivalent GSH, pH 7.2: 45 μL of 250 μM peptide + 45 μL 0.1 M phosphate buffer pH 7.2 containing 250 μM GSH, 24 h
Method: Peptide (45 μL of a 250 μM solution) was combined with either 45 μL of buffer (0.1 M phosphate buffer, pH 7.2) or 45 μL of buffer containing 250 μM GSH. After 24 h, the reaction was quenched with 1% TFA and the solution analysed using analytical RP-HPLC.

[2] = test system: sheep blowflies (Lucilia cuprina); test: Blowfly toxicity assay, injection; format: in vivo; details: injected into ventro-lateral thoracic region, lethality after 24 h; three tests, n = 10 flies per dose
Method: Injection assays using sheep blowflies (Lucilia cuprina) were performed as described. Briefly, peptides were dissolved in insect-saline and injected into the ventro-lateral thoracic region of blowflies (mass 16.5–27.0 mg). Thereafter, flies were individually housed in 2 mL tubes and lethality determined after 24 h.
(§1) Tests for oral toxicity in blowflies were performed as described. In short, peptides were dissolved in 5% sucrose and 3 μL of this solution was applied to the inside of a 2 mL tube containing a single fly (mass 16.8–25.3 mg). Flies were kept in the tube overnight without additional food or water until the sucrose solution was consumed. Thereafter, flies were transferred into 250 mL plastic containers and provided with a sugar cube and wet cotton wool. Each box housed 10 flies that received the same treatment. Oral toxicity was determined three days after the oral application. For both injection and oral toxicity assays, three tests were carried for each peptide, and for each test several doses of peptide (n = 10 flies per dose) were used along with appropriate controls (i.e., insect saline or 5% sucrose solution; n = 20–40). LD50 values were calculated as described previously.

[3] = Midgut permeation assay (Ussing chamber); format: in vitro ADME, Manduca sexta; details: 10 µM in luminal fluid, separate occasion / different batch of M. sexta, comparison with 1,4-SeSe-Hv1a, 1 h at 30 °C, HPLC/ELISA/MALDI-TOF MS, mean ± S.E.M, n = 11–12 tissues
Method: Flat-sheet preparations of the anterior midgut of Manduca sexta were mounted in Ussing-type chambers as previously described [39]. The lumen to hemolymph flux was determined by applying various concentrations of peptide (0.1, 1, and 10 μM) to the luminal side of the tissue and taking aliquots of saline from the hemolymph side after 1 h incubation at 30 °C (n = 9–19 tissues per peptide and dose). […] To check for damage to gut tissues that would allow leakage of peptides through the tissues, 1% amaranth, which is not absorbed across gut epithelia, was added to the luminal side of the tissue. Samples were analysed using a combination of liquid chromatography, enzyme-linked immunosorbent assay (ELISA), and matrix-assisted laser desorption/ionisation time-of-flight mass spectrometry (MALDI-TOF MS) to quantify the amount of intact peptide present on the hemolymph side of the tissue [39].
Chromatography was performed using a Beckman System Gold chromatographic system (Beckman Coulter Ltd., High Wycombe, UK) consisting of a dual pump programmable solvent module 126 and System Gold UV detector module 166. […] Samples were eluted using a linear gradient of 10–60% ACN/0.1% TFA over 50 min at a flow rate of 0.2 mL/min, and elution monitored at 214 nm. […] Absorbance was converted to peptide concentration using standard curves. […]

[4] = test system: sheep blowflies (Lucilia cuprina); test: Blowfly toxicity assay, oral; format: in vivo; details: feeding to sheep blowflies; full dose-response curves not determined (Figure 4)
Method: as §1

Sarcophaga flesh flies = details: cited from earlier work
[5] = 0.1 M phosphate buffer pH 7.2, 24 h, RP-HPLC

Molecule | susceptibility to scrambling in the presence of GSH [1, 5] | Correctly Folded Toxin, In Buffer, pH 7.2 [1] [%] | Correctly Folded Toxin, With 1 Equivalent GSH, pH 7.2 [1] [%] | LD50, injection into sheep blowflies [2] [pmol/g] | Lumen to Hemolymph Flux [3] [pmol/cm^2/h] | stability in neutral media [1, 5] | oral activity compared with native Hv1a [4] | ratio oral vs. injection LD50 (Sarcophaga flesh flies)
[C11U,C22U]-Hv1a [2,5-SeSe-Hv1a] | only weakly prone to scrambling | 100 | 82 | 455 ± 35 | – | – | – | –
[C4U,C18U]-Hv1a [1,4-SeSe-Hv1a] | only weakly prone to scrambling | 100 | 85 | 407 ± 22 | 227 ± 14 | – | – | –
[C17U,C36U]-Hv1a [3,6-SeSe-Hv1a] | more susceptible to scrambling | 95 | 60 | 446 ± 12 | – | marginal instability | significantly lower than native Hv1a | –
B1 | – | – | – | – | – | – | – | 714

From article PMC6164231, “Evaluation of Chemical Strategies for Improving the Stability and Oral Toxicity of Insecticidal Peptides” (Biomedicines, 2018)
